Activity calls are given as the source filed them.
Columns and labels:
[1] = target: T1, Mannose-6-phosphate isomerase (Homo sapiens, UniProt P34949); assay: MPI inhibition at elevated mannose 6-phosphate – biochemical, fluorescence intensity, high mannose 6-phosphate, primary screen (AID 1220)
T1 sequence (P34949 whole entry): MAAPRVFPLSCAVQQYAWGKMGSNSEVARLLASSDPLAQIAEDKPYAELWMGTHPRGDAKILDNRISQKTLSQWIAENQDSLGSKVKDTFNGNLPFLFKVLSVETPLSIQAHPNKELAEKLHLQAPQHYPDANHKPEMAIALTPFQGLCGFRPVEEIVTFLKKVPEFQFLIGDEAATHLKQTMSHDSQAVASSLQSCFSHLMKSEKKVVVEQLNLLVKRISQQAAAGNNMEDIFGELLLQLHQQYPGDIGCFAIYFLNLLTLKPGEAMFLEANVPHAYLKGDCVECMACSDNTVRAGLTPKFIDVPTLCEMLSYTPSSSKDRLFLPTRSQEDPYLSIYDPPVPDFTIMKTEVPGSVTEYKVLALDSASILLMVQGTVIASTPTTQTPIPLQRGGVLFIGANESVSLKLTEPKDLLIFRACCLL

[2] = NIH-3T3 fibroblast cytotoxicity, dose response, cytotoxicity control, cell-based, fluorescence, Alamar Blue, secondary assay (AID 2327); type: functional;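 further: NIH-3T3 mouse fibroblasts cultured with fluconazole at 8 µg/mL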
[3] = fluconazole-exposed Candida albicans growth modulators – fluorescence, retest, confirmation (AID 2467); type: functional, cell-based
[4] = viability inhibitors of stage V gametocytes – luminescence, dose response (AID 1117278); type: functional, cell-based;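 further: gametocytes exposed to compound for 24 hours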
[5] = viability loss in human Jurkat cells – cell-based, luminescence, cytotoxicity control for P. falciparum gametocyte viability project, dose response (AID 1117277); type: functional;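 further: potency reflects loss of cellular ATP meaning fewer viable cells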
[6] = target: Serine/threonine-protein phosphatase PP1-alpha catalytic subunit (Homo sapiens, UniProt P62136); assay: inhibition of protein phosphatase 1 activity – biochemical, fluorescence, dose response (AID 2394)
[7] = Luminescence Cell-Based Dose Confirmation HTS to Identify Activators of 5'UTR Stem-Loop Driven Alpha-Synuclein mRNA Translation in H4 Neuroglioblastoma Cells. [Related pubchem assays: 1829 (Project Summary), 1814 (Primary HTS)]; type: functional
[8] = Luminescence Cell-Based Dose Response HTS to Identify Activators of Luciferase Translation or Activity in H4 […] Cells. [Related pubchem assays: 1829 (Project Summary), 1814 (Primary HTS)]; type: functional
[9] = target: T2, SUMO-activating enzyme (Homo sapiens, UniProt Q9UBT2); assay: blockers of UBC9-mediated SUMO conjugation – biochemical, AlphaScreen, SUMOylation inhibitor project, confirmation (AID 2018); type: functional
[10] = test system: H4; assay: Luminescence Cell-Based Dose Response HTS to Identify Activators of 5'UTR Stem-Loop Driven Prion Protein mRNA Translation in H4 Neuroglioblastoma Cells. [Related pubchem assays: 1829 (Project Summary), 1814 (Primary HTS)]; type: functional; details: Homo sapiens
[11] = target: T2, SUMO-activating enzyme; assay: blockers of SAE1/SAE2–UBC9 SUMO transfer – biochemical, HTRF, uHTS, primary screen (AID 2006); type: protein-complex assay
[12] = target: T3, Serine/threonine-protein phosphatase (Homo sapiens, UniProt Q9BPW0); assay: inhibition of protein phosphatase 5 activity – biochemical, fluorescence, dose response (AID 2395)
T3 sequence (Q9BPW0 whole entry): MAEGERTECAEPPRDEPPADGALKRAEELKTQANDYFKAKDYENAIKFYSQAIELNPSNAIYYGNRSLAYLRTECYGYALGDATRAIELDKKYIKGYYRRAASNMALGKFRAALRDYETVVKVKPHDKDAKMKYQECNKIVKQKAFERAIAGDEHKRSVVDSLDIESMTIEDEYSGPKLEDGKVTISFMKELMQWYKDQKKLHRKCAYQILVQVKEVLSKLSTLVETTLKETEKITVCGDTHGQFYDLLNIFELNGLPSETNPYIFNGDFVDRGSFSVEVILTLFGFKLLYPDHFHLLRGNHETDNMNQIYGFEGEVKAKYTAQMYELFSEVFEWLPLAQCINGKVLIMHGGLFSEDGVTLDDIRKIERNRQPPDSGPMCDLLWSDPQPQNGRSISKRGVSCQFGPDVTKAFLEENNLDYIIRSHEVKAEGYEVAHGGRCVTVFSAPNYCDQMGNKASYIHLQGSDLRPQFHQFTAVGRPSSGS

[13] = target: T4, Replicative DNA helicase DnaB (Mycobacterium tuberculosis, UniProt P9WMR3); assay: DnaB intein splicing inhibitors, dose response, biochemical, cell-free fluorescence (AID 449749); type: functional
T4 sequence (P9WMR3 whole entry): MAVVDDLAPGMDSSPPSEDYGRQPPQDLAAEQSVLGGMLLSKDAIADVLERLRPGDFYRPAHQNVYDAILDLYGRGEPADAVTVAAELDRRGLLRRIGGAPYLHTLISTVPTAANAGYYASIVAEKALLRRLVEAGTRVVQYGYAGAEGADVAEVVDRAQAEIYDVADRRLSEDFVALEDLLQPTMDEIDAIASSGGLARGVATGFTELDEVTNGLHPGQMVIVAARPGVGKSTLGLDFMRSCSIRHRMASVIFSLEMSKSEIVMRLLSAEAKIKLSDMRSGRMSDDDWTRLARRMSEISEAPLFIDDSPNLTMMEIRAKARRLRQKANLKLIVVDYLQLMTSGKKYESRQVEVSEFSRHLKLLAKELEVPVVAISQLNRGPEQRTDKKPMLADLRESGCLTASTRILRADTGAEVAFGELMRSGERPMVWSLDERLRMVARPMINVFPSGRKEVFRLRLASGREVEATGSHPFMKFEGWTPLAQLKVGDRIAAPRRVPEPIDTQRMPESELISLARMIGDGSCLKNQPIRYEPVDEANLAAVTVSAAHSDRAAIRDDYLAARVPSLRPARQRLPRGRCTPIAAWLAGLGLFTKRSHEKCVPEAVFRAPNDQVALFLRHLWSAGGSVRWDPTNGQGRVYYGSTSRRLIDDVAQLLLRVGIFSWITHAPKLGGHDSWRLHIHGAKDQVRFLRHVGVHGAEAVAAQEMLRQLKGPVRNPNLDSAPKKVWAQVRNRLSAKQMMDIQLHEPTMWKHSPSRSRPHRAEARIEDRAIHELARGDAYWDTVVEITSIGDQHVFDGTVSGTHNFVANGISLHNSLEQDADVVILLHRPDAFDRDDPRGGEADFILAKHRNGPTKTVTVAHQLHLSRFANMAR

[14] = target: T5, Protein RecA (Mycobacterium tuberculosis, UniProt P9WHJ3); assay: Fluorescence Cell-Free Homogeneous Dose Retest to Identify Inhibitors of RecA-Intein Splicing Activity. [Related pubchem assays (depositor defined):AID2097, AID2223, AID489010, AID492950]; type: functional
T5 sequence (P9WHJ3 whole entry): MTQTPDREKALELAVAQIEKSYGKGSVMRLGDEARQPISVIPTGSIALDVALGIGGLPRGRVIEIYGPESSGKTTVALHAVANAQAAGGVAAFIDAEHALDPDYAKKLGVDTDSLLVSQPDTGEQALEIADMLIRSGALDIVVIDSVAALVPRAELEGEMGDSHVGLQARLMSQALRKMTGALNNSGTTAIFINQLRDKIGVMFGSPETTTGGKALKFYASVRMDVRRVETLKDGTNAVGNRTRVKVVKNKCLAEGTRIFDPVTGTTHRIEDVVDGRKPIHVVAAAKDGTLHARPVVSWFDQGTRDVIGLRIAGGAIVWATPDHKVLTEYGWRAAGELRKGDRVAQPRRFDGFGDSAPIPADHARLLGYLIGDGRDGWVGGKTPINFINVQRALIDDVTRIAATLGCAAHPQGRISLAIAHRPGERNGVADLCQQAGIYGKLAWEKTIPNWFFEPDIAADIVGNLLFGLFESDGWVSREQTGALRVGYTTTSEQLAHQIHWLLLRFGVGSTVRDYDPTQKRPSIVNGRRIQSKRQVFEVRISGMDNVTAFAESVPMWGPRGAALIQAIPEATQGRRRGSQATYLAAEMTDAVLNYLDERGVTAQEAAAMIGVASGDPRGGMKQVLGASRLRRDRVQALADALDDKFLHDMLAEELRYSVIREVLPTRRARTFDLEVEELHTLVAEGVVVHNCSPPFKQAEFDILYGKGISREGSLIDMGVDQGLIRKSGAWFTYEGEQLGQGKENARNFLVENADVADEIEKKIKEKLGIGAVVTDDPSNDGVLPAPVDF

[15] = target: Peroxisome proliferator-activated receptor gamma/Nuclear receptor corepressor 2 (Homo sapiens, UniProt P37231+Q9Y618); assay: Counterscreen for NR2E3 inverse agonists: TR-FRET-based biochemical high throughput dose response assay to identify inverse agonists of the interaction between peroxisome proliferator-activated receptor gamma (PPARg) and nuclear receptor co-repressor 2 (NCOR2).; type: functional
[16] = target: Photoreceptor-specific nuclear receptor (Homo sapiens, UniProt Q9Y5X4); assay: ligands suppressing NR2E3 nuclear receptor activity – biochemical, TR-FRET, dose response (AID 463256); type: functional
[17] = target: 26S proteasome non-ATPase regulatory subunit 14 (Homo sapiens, UniProt O00487); assay: inhibition of proteasome subunit RPN11 – biochemical, fluorescence polarization, uHTS hits, confirmation (AID 602368); type: functional
[18] = target: 72 kDa type IV collagenase (Homo sapiens, UniProt P08253); assay: Dose Response validation of uHTS RPN11 inhibitor hits using a MMP-2 Fluorescence assay.; type: functional
[19] = target: Prothrombin (Bos taurus, UniProt P00735); assay: thrombin protease inhibitors – biochemical, fluorescence polarization, uHTS hits, dose response (AID 602369); type: functional
[20] = target: Cytochrome P450 2C19 (Homo sapiens, UniProt P33261); assay: qHTS Assay for Inhibitors and Substrates of Cytochrome P450 2C19. [Related pubchem assays: 410 ]; type: ADME; details: read-out: Potency
[21] = test system: Vero; assay: inhibition of WNV-induced cytopathic effect – cell-based, CPE readout (AID 1621); type: functional; details: Chlorocebus sabaeus

T2 sequence (Q9UBE0 whole entry): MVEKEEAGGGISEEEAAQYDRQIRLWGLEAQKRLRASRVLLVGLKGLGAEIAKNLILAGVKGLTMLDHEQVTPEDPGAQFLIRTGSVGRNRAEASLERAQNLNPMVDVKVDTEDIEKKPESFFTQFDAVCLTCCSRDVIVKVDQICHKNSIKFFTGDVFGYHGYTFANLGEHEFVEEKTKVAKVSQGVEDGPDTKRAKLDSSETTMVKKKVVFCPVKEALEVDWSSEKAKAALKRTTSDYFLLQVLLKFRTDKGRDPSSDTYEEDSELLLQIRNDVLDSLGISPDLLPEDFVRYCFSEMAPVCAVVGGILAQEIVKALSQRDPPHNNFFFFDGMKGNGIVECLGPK
T2 sequence (Q9UBT2 whole entry): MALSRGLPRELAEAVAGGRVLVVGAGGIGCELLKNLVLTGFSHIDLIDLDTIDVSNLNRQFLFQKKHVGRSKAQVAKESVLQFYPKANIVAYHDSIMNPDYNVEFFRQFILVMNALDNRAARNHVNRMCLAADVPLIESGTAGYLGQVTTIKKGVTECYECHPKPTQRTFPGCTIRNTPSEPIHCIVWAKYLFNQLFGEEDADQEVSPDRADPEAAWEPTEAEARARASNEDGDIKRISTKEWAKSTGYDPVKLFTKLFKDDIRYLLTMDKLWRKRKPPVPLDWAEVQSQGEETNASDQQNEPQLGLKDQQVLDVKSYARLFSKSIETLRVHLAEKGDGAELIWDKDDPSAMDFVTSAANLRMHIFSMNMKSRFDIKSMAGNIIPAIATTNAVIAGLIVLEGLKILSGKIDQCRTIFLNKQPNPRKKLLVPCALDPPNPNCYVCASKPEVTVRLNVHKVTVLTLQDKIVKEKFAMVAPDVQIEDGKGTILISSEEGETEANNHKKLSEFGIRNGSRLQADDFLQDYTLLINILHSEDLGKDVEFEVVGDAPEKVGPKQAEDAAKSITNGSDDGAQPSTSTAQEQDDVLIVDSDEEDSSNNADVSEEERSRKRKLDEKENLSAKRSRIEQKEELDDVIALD
Photoreceptor-specific nuclear receptor, sequence (Q9Y5X4 whole entry): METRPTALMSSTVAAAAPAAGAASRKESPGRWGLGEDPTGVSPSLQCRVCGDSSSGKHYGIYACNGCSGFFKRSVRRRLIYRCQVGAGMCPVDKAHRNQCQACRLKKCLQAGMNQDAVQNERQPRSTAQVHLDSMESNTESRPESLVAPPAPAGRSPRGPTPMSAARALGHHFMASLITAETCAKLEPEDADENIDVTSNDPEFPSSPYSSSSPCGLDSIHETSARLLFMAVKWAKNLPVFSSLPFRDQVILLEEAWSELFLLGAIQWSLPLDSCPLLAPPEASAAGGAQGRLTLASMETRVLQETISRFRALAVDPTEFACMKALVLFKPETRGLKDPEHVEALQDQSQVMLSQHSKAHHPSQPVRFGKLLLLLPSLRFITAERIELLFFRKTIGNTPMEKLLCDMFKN
Peroxisome proliferator-activated receptor gamma/Nuclear receptor corepressor 2, sequence (P37231 whole entry): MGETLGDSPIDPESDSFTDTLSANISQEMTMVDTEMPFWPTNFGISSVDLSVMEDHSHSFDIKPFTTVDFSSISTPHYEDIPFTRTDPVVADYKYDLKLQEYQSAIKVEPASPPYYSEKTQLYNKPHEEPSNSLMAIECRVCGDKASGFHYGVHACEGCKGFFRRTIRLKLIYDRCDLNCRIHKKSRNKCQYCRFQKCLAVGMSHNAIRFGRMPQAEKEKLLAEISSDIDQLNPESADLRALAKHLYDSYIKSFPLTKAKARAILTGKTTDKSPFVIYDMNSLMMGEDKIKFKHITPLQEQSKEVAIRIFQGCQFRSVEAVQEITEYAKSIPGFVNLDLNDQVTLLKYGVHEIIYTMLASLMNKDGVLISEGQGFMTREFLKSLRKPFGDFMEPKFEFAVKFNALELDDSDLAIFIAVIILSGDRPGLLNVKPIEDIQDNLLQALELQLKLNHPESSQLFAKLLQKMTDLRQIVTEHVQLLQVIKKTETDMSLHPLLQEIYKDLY
Peroxisome proliferator-activated receptor gamma/Nuclear receptor corepressor 2, sequence (Q9Y618 whole entry): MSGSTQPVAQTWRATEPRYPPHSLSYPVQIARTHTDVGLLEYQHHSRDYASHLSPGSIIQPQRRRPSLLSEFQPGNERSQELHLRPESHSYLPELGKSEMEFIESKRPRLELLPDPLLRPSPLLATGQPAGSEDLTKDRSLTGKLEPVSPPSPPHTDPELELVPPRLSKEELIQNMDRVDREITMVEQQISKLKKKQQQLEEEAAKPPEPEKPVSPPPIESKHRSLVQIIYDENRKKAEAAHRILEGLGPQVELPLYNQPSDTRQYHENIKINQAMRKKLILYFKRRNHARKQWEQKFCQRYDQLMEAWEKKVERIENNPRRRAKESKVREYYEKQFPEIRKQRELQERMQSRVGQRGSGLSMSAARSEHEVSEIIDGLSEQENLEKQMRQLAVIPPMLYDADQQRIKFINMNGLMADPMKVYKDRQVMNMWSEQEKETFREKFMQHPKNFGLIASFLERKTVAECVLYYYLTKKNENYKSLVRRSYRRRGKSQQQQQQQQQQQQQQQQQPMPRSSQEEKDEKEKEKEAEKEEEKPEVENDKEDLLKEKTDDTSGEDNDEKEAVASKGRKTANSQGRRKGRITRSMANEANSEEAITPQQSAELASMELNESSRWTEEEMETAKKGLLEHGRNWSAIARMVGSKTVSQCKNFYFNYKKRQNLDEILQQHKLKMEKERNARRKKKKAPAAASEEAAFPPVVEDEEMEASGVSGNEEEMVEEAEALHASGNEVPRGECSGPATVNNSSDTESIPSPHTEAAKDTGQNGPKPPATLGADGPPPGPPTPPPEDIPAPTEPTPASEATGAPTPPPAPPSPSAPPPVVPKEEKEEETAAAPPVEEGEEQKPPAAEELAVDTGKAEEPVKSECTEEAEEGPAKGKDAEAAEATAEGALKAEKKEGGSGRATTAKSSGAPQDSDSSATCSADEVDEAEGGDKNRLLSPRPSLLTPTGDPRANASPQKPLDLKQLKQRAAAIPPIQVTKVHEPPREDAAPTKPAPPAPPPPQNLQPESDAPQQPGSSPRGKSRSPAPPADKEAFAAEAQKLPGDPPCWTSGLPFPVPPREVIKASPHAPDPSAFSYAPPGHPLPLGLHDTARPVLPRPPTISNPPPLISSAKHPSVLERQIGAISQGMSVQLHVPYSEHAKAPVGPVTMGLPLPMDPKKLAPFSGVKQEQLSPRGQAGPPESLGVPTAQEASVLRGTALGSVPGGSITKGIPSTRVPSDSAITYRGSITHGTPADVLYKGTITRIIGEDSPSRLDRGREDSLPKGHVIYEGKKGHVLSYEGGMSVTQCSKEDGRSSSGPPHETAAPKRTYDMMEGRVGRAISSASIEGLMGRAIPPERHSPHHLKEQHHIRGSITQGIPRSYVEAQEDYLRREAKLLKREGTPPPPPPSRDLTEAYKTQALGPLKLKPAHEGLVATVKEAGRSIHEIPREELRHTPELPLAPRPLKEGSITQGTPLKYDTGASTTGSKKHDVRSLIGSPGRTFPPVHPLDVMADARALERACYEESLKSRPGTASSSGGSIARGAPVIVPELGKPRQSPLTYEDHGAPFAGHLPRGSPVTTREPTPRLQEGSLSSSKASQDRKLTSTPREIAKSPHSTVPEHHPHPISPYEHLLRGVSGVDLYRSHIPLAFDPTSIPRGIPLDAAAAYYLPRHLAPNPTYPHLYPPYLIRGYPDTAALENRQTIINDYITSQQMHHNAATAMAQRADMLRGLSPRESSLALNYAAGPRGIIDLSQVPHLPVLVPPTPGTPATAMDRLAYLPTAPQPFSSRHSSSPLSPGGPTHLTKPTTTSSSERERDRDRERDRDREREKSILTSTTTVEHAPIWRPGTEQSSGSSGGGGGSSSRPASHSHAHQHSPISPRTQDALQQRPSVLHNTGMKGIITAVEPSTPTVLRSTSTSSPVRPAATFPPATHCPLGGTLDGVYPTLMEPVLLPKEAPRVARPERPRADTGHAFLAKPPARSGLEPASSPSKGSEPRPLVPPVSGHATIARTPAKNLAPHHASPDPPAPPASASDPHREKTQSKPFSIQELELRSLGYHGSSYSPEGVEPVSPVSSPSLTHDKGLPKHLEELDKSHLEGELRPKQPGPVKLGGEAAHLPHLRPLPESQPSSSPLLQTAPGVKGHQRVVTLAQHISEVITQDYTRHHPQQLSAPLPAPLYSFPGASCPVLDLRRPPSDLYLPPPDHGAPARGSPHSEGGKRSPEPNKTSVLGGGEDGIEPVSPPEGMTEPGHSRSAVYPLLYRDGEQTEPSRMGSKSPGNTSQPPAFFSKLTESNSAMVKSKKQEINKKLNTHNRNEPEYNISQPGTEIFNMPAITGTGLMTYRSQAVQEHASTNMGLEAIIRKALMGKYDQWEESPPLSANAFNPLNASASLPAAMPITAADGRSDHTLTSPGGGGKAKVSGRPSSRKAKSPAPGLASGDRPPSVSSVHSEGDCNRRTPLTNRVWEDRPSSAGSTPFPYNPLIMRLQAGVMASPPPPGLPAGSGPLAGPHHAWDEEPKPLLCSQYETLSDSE
Cytochrome P450 2C19, sequence (P33261 whole entry): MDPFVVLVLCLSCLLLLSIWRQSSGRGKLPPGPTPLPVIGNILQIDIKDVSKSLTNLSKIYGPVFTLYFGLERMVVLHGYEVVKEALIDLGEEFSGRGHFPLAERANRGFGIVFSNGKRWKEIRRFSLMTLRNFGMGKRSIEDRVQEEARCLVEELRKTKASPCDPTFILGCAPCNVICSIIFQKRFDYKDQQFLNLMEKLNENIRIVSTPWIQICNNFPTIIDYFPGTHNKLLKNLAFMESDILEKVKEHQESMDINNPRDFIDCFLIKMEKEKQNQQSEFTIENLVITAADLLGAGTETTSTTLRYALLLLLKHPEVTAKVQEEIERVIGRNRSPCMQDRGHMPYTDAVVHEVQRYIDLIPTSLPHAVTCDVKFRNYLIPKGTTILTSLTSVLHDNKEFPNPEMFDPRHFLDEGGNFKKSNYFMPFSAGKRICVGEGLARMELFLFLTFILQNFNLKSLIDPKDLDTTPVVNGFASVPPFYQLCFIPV

Nc1c(N2CCOCC2)cc(Cl)c2nonc12
IC50 [1]: > 50 µM (not active)

CC(=O)c1cnc(Nc2cccc(Cl)c2Cl)s1
EC50 [2]: > 160 µM (inactive)
EC50 [3]: > 38 µM (not active)
IC50 [4]: > 109 µM (inactive)
IC50 [5]: > 83.3 µM (inactive)

O=C1c2ccccc2C(=O)C12OC2c1ccc(Cl)cc1 (stereo unspecified)
IC50 [6]: > 67 µM (not active)
EC50 [7]: > 120 µM (not active)
EC50 [8]: > 120 µM (not active)
IC50 [9]: 7.05 µM (active)
EC50 [10]: > 120 µM (not active)
IC50 [11]: 21.2 µM (active)
IC50 [12]: > 2.48 µM (active)
AC50 [13]: 1.61 µM (active)
EC50 [14]: 22.2 µM (inconclusive)

Cc1c(NC(=O)c2cccc(-c3cc4ccccc4oc3=O)c2)cccc1-c1nc2ncccc2o1
IC50 [15]: 1.72 µM (active)
IC50 [16]: 2.33 µM (active)
IC50 [17]: 24.1 µM (active)
IC50 [18]: > 100 µM (inactive)
IC50 [19]: 92 µM (active)

Cc1ccc(NCC(O)C(O)C(O)CO)cc1C (stereo unspecified)
IC50 [4]: > 109 µM (inactive)
IC50 [5]: > 83.3 µM (inactive)

CC(=O)c1ccc(C2C=CC(Oc3ccc(F)cc3C)C(CO)O2)cc1 (stereo unspecified)
AC50 [20]: 6.31 µM (inconclusive)

O=C(Cc1ccc(Cl)cc1)Nc1ccc2oc(-c3ccncc3)nc2c1
IC50 [15]: 5.54 µM (active)
IC50 [16]: 4.29 µM (active)

CCOC(=O)c1[nH]c2ccccc2c1NC(=O)CC(C)(C)C
IC50 [21]: 22.2 µM (active)

C=C[C@@]1(C)C=C2CC[C@@H]3[C@](C)(CCC[C@@]3(C)C(=O)O)[C@H]2CC1 [PIMARIC ACID]
AC50 [20]: 7.94 µM (inconclusive)
